Reference: PubChem BioAssay AID192 (DTP/NCI, 2004)
“And” between values parts separate entries of the source, which are not always exact repeats. Equal entries are not always repeated. Toxic doses and inconclusive results are not listed.

Tested on: BDF1 mice, B16 melanoma ip, median survival T/C
Test: NCI In Vivo Anticancer Drug Screen. Data for tumor model B16 Melanoma (intraperitoneal) in B6D2F1 (BDF1) mice
Settings: endpoint: median survival time, higher = longer survival
In short: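 The ratio T/C compares compound-treated mice with vehicle-treated controls, using survival or tumor size as the endpoint in a transplantable tumor model.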

[1] = dose: 50.0 mg/kg/injection, schedule: Q01DX009 (ip), vehicle: saline
[2] = dose: 12.5 mg/kg/injection, schedule: Q01DX009 (ip), vehicle: Klucel (hydroxypropylcellulose) (HPC)
[3] = dose: 25.0 mg/kg/injection, schedule: Q01DX009 (ip), vehicle: Klucel (hydroxypropylcellulose) (HPC)
[4] = dose: 50.0 mg/kg/injection, schedule: Q01DX009 (ip), vehicle: Klucel (hydroxypropylcellulose) (HPC)
[5] = dose: 100.0 mg/kg/injection, schedule: Q01DX009 (ip), vehicle: Klucel (hydroxypropylcellulose) (HPC)
[6] = dose: 200.0 mg/kg/injection, schedule: Q01DX009 (ip), vehicle: Klucel (hydroxypropylcellulose) (HPC)
[7] = dose: 400.0 mg/kg/injection, schedule: Q01DX009 (ip), vehicle: Klucel (hydroxypropylcellulose) (HPC)
[8] = dose: 50.0 mg/kg/injection, schedule: Q01DX009 (ip), vehicle: saline with Tween-80
[9] = dose: 100.0 mg/kg/injection, schedule: Q01DX009 (ip), vehicle: saline with Tween-80
[10] = dose: 400.0 mg/kg/injection, schedule: Q01DX009 (ip), vehicle: saline with Tween-80
[11] = dose: 200.0 mg/kg/injection, schedule: Q01DX009 (ip), vehicle: saline with Tween-80

With CCCCCCOCCN1CCN(CCCN2c3ccccc3Sc3ccc(C(F)(F)F)cc32)CC1 the T/C (dose: 0.5 mg/kg/injection, schedule: Q01DX009 (ip), vehicle: saline with Tween-80) was 112 % of control, the T/C (dose: 1.0 mg/kg/injection, schedule: Q01DX009 (ip), vehicle: saline with Tween-80) was 109 % of control and the T/C (dose: 2.0 mg/kg/injection, schedule: Q01DX009 (ip), vehicle: saline with Tween-80) was 109 % of control.

For Nc1[nH]c(=O)nc2nc[nH]c12, the T/C (dose: 12.5 mg/kg/injection, schedule: Q01DX009 (ip), vehicle: saline) was 108 % of control, the T/C (dose: 25.0 mg/kg/injection, schedule: Q01DX009 (ip), vehicle: saline) was 94 % of control and the T/C [1] was 89 % of control.

With CN1CCc2cc3c(c4c2C1C(O)c1ccccc1-4)OCO3 (stereo unspecified) the T/C (dose: 0.5 mg/kg/injection, schedule: Q01DX009 (ip), vehicle: acid diluted with saline) was 113 % of control, the T/C (dose: 1.0 mg/kg/injection, schedule: Q01DX009 (ip), vehicle: acid diluted with saline) was 109 % of control and the T/C (dose: 2.0 mg/kg/injection, schedule: Q01DX009 (ip), vehicle: acid diluted with saline) was 96 % of control. The T/C (dose: 4.0 mg/kg/injection, schedule: Q01DX009 (ip), vehicle: acid diluted with saline) was 89 % of control.

In the case of O=C(C(=O)c1ccc(Br)cc1)c1ccc(Br)cc1, the T/C [2] is reported as 108 % of control, the T/C [3] is reported as 107 % of control and the T/C [4] is reported as 91 % of control.

With COc1cccc2c1C(=O)c1c(O)c3c(c(O)c1C2=O)C[C@@](O)(C(=O)CN1CCOCC1)C[C@@H]3OC1CC(N)C(O)C(C)O1 (stereo partly specified) the T/C (dose: 3.13 mg/kg/injection, schedule: Q01DX009 (ip), vehicle: water) was 159 % of control, the T/C (dose: 6.25 mg/kg/injection, schedule: Q01DX009 (ip), vehicle: water) was 153 % of control and the T/C (dose: 12.5 mg/kg/injection, schedule: Q01DX009 (ip), vehicle: water) was 157 % of control. For the same molecule, the T/C (dose: 25.0 mg/kg/injection, schedule: Q01DX009 (ip), vehicle: water) was 157 % of control.

In the case of Cc1c2cccc(F)c2c[n+]2ccccc12, the T/C (dose: 6.25 mg/kg/injection, schedule: Q01DX009 (ip), vehicle: Klucel (hydroxypropylcellulose) (HPC)) is reported as 100 % of control, the T/C [2] is reported as 100 % of control and the T/C [3] is reported as 106 % of control.

With Cn1c(O)c(/C=C2\C=Nc3ccccc32)n(C)c1=N the T/C [2] was 96 % of control, the T/C [3] was 100 % of control and the T/C [4] was 101 % of control. The T/C [5] was 97 % of control.

For O=c1oc(-c2ccc3c(c2)OCO3)nc2ccccc12, the T/C [4] was 98 % of control, the T/C [5] was 99 % of control and the T/C [6] was 91 % of control.

With O=C(O)c1cc2ccccc2cn1 the T/C [1] was 102 % of control and the T/C (dose: 100.0 mg/kg/injection, schedule: Q01DX009 (ip), vehicle: saline) was 100 % of control.

In the case of [Cl][Hg][c]1ccc2ccccc2c1, the T/C (dose: 1.5 mg/kg/injection, schedule: Q01DX009 (ip), vehicle: gum acacia) is reported as 108 % of control, the T/C (dose: 3.0 mg/kg/injection, schedule: Q01DX009 (ip), vehicle: gum acacia) is reported as 95 % of control and the T/C (dose: 6.0 mg/kg/injection, schedule: Q01DX009 (ip), vehicle: gum acacia) is reported as 95 % of control. For the same molecule, the T/C (dose: 12.5 mg/kg/injection, schedule: Q01DX009 (ip), vehicle: gum acacia) was 96 % of control.

In the case of C=CCN(CC=C)c1ccc(N(CC)CC)cc1, the T/C (dose: 25.0 mg/kg/injection, schedule: Q04DX003 (ip), vehicle: Klucel (hydroxypropylcellulose) (HPC)) is reported as 99 % of control, the T/C (dose: 50.0 mg/kg/injection, schedule: Q04DX003 (ip), vehicle: Klucel (hydroxypropylcellulose) (HPC)) is reported as 102 % of control and the T/C (dose: 100.0 mg/kg/injection, schedule: Q04DX003 (ip), vehicle: Klucel (hydroxypropylcellulose) (HPC)) is reported as 88 % of control and 89 % of control.

O=C1C=CC2(CCC23C=CC(=O)O3)O1 (stereo unspecified) was tested, and the T/C (dose: 7.5 mg/kg/injection, schedule: Q01DX009 (ip), vehicle: Klucel (hydroxypropylcellulose) (HPC)) was 87 % of control, the T/C (dose: 15.0 mg/kg/injection, schedule: Q01DX009 (ip), vehicle: Klucel (hydroxypropylcellulose) (HPC)) was 93 % of control and the T/C (dose: 30.0 mg/kg/injection, schedule: Q01DX009 (ip), vehicle: Klucel (hydroxypropylcellulose) (HPC)) was 92 % of control.

In the case of CSc1ncnc2c1ncn2C1OC(CO)C(O)C1O (stereo unspecified), the T/C (dose: 2.0 mg/kg/injection, schedule: Q01DX009 (ip), vehicle: saline sonified) is reported as 95 % of control, the T/C (dose: 4.0 mg/kg/injection, schedule: Q01DX009 (ip), vehicle: saline sonified) is reported as 88 % of control and the T/C (dose: 7.5 mg/kg/injection, schedule: Q01DX009 (ip), vehicle: saline with Tween-80) is reported as 100 % of control. For the same molecule, the T/C (dose: 8.0 mg/kg/injection, schedule: Q01DX009 (ip), vehicle: saline sonified) was 86 % of control, the T/C (dose: 15.0 mg/kg/injection, schedule: Q01DX009 (ip), vehicle: saline with Tween-80) was 97 % of control and the T/C (dose: 16.0 mg/kg/injection, schedule: Q01DX009 (ip), vehicle: saline sonified) was 95 % of control.

For CCCCCCCCC(=O)N1CC(C)OC(C)C1 (stereo unspecified), the T/C [5] was 103 % of control, the T/C [6] was 89 % of control and the T/C [7] was 94 % of control.

For CCOc1ncc([N+](=O)[O-])c(OCC)n1, the T/C [8] was 104 % of control, the T/C [9] was 100 % of control and the T/C [10] was 95 % of control.

With COc1cccc(NC(=O)Nc2cccc(Cl)c2)c1 the T/C [5] was 103 % of control, the T/C [6] was 96 % of control and the T/C [7] was 103 % of control.

In the case of COc1ccc2c(c1[N+](=O)[O-])CC[C@@H]1[C@@H]2CC[C@]2(C)C(=O)CC[C@@H]12, the T/C [8] is reported as 87 % of control and the T/C [9] is reported as 89 % of control.

With CCNc1nc(NC(C)C)nc(SC)n1 the T/C [8] was 117 % of control, the T/C [9] was 106 % of control and the T/C [11] was 104 % of control.

With COc1cccc2c1cc([N+](=O)[O-])c1c(C(=O)O)cc3c(c12)OCO3 the T/C (dose: 2.5 mg/kg/injection, schedule: Q01DX009 (ip), vehicle: Klucel (hydroxypropylcellulose) (HPC)) was 106 % of control, the T/C (dose: 5.0 mg/kg/injection, schedule: Q01DX009 (ip), vehicle: Klucel (hydroxypropylcellulose) (HPC)) was 111 % of control and the T/C (dose: 10.0 mg/kg/injection, schedule: Q01DX009 (ip), vehicle: Klucel (hydroxypropylcellulose) (HPC)) was 94 % of control.

For Oc1ccc(C2C=CCC2)cc1C1C=CCC1 (stereo unspecified), the T/C [5] was 99 % of control and 100 % of control, the T/C [6] was 89 % of control and 96 % of control and the T/C [7] was 100 % of control and 107 % of control.

In the case of COc1ccccc1NC(=O)c1ccccc1, the T/C [9] is reported as 97 % of control, the T/C [11] is reported as 107 % of control and the T/C [10] is reported as 97 % of control.

With Cc1ccc(NS(=O)(=O)c2ccc(Cl)cc2)cc1Cl the T/C (dose: 25.0 mg/kg/injection, schedule: Q01DX009 (ip), vehicle: saline with Tween-80) was 99 % of control, the T/C [8] was 99 % of control and the T/C [9] was 95 % of control.
